{"source": "ChEMBL document CHEMBL1221220", "about": "“Transport and signaling via the amino acid binding site of the yeast Gap1 amino acid transceptor” (Nat Chem Biol, 2009)", "key": {"[1]": {"tested_on": "T1, General amino-acid permease GAP1 (Saccharomyces cerevisiae), P19145 [A393C]", "T1 sequence (whole entry)": "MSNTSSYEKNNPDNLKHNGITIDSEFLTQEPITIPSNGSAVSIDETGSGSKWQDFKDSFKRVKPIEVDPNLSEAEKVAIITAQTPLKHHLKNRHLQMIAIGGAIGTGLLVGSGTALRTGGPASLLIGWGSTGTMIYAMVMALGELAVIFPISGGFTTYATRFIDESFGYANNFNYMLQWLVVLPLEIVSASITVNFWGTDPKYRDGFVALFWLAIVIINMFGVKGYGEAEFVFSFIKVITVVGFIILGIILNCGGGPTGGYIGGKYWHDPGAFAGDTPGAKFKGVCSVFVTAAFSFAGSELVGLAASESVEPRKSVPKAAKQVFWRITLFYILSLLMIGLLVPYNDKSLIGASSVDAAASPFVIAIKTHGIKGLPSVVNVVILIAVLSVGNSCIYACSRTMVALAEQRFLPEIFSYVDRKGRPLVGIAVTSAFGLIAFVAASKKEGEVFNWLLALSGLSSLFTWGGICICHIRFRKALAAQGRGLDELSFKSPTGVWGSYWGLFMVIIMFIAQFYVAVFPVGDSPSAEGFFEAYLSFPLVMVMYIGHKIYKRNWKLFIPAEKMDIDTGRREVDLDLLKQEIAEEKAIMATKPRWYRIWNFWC", "assay": "Activation of yeast Gap1 A393C mutant-mediated amino acid uptake at 10 mM"}, "[2]": {"tested_on": "T2, General amino-acid permease GAP1 (Saccharomyces cerevisiae), P19145 [A403C]", "T2 sequence (whole entry)": "T1 sequence (whole entry) with C393A, A403C", "assay": "Induction of yeast Gap1 A403C mutant-mediated trehalose activation at 10 mM"}, "[3]": {"tested_on": "T3, General amino-acid permease GAP1 (Saccharomyces cerevisiae), P19145 [S398C]", "T3 sequence (whole entry)": "T1 sequence (whole entry) with C393A, S398C", "assay": "Induction of yeast Gap1 S398C mutant-mediated amino acid uptake at 2 mM in presence of 10 mM MTSEA treated before compound addition"}}, "note": "Where a chain is given by its changes, count along the chain named. Active and inactive are the calls of the source. The calls are words filed in the database; no cut-off is given here."}
{"smiles": "NC(=O)NCCC[C@H](N)C(=O)O", "values": [{"measurement": "Activity", "setting": "[1]", "value": "inactive"}, {"measurement": "Activity", "setting": "[2]", "value": "inactive"}, {"measurement": "Activity", "setting": "[3]", "value": "Active"}]}
